*1 amine or outer side, *2 acyl side, *3 side chain or, on linkers, in order; H or OH if unused. Where a SMILES comes first, the peptide text is derived from it. Side-chain parts run from the residue outwards. [ ]: non-standard residue; d: D form. The star is where a group is joined. PEG24 = NCCOCCOCCOCCOCCOCCOCCOCCOCCOCCOCCOCCOCCOCCOCCOCCOCCOCCOCCOCCOCCOCCOCCOCCOCCC(=O)O; Bip(2'-Et-4'-O(CH2)4NH2) = CCc1cc(OCCCCN[*:3])ccc1-c1ccc(C[C@H](N[*:1])C(=O)[*:2])cc1; Malonyl(2,2-Me2,histaminyl) = CC(C)(C(=O)NCCc1cnc[nH]1)C(=O)*; Nva(5-(3,5-Me2Ph)) = Cc1cc(C)cc(CCC[C@H](N)C(=O)O)c1; Ala(1H-tetrazol-5-yl) = N[C@@H](Cc1nnn[nH]1)C(=O)O; αMePhe(2-F) = C[C@](N)(Cc1ccccc1F)C(=O)O; DBCO = C1#Cc2ccccc2N(*)Cc2ccccc21; Suc = O=C(CCC(=O)[*:2])[*:1]
Legend:
HEK293/CRE-Luc cells [1] = test: Luciferase reporter assay, HEK293/CRE-Luc cells without hGLP1R (Example 11); assay type: cell-based, human; conditions: Table 11; Experiment A; no hGLP1R expression
Summary of the method: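 Counter-screen in HEK293 cells carrying CRE-driven firefly luciferase without hGLP1R; 3-fold serial dilutions of payloads or linker-payloads at 0.2% final DMSO, 4–6 h.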

HEK293/CRE-Luc cells [2] = test: Luciferase reporter assay, HEK293/CRE-Luc cells without GLP1R (Example 17); assay type: cell-based, human; conditions: HEK293/CRE-Luc cells without hGLP1R, payloads and linker-payloads
Summary of the method: (§1)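 HEK293 cells carrying a CRE-driven firefly luciferase reporter were exposed to 3-fold serial dilutions of payloads or linker-payloads (12 points, 0.2% DMSO final) for 4–6 h, then luminescence was read. EC50 came from a four-parameter logistic fit; S/N is top RLU over untreated wells, and relative potency and S/N are referenced to M2361.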

human GLP1R [3] = biological target: T1, human GLP1R (Homo sapiens, UniProt P43220); test: CRE-luciferase reporter assay, HEK293/Myc-hGLP1R/Cre-Luc (Example 9); assay type: cell-based; parameters: engineered to express full-length human GLP1R, cynomolgus GLP1R; expressed in transfected cells; host or cells: HEK293/CRE-Luc; conditions: Table 9; 5.5 h; read-out: HEK293/Myc-hGLP1R/Cre-Luc EC50
T1 sequence (P43220 24-463): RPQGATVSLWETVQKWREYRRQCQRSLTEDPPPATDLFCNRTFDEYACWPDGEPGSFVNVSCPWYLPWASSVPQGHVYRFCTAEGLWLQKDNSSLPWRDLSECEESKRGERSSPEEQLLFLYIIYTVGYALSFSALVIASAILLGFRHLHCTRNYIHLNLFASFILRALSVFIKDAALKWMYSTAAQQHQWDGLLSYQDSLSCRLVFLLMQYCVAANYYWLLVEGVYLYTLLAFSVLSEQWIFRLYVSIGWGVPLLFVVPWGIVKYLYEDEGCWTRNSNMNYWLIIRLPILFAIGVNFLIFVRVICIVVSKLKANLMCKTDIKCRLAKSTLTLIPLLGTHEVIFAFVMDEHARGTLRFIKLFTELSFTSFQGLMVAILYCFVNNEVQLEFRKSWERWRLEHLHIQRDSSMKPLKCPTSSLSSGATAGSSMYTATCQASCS
Experimental: To test the activity of GLP1R agonist payloads and GLP1R agonist linker-payloads (LPs) in vitro, a cell-based cAMP responsive luciferase reporter assay was developed.
Cells were incubated overnight at 37° C. in 5% CO2. […] Plates were incubated for 5.5 h at 37° C. in 5% CO2. For end-point measurement, 100 μL/well of One-Glo reagent (Promega, #E6051) was added and plates were kept at room temperature for 5-10 minutes. Luciferase activity was measured on Envision Multilabel Plate Reader (Perkin Elmer) in Luminescent mode. The relative light units (RLU) values were obtained and the results were analyzed using nonlinear regression with GraphPad Prism software (GraphPad).

human GLP1R [4] = biological target: T1, human GLP1R; test: Luciferase reporter assay, HEK293/CRE-Luc/hGLP1R cells (Example 11); assay type: cell-based; parameters: engineered to express full-length human GLP1R, cynomolgus GLP1R; expressed in transfected cells; host or cells: HEK293/CRE-Luc; conditions: Table 11; Experiment A
human GLP1R [5] = biological target: T1, human GLP1R; test: Luciferase reporter assay, HEK293/CRE-Luc/hGLP1R (Example 17); assay type: cell-based; parameters: engineered to express full-length human GLP1R, cynomolgus GLP1R; expressed in transfected cells; host or cells: HEK293/CRE-Luc; conditions: HEK293/CRE-Luc/hGLP1R
Summary of the method: as §1

[6] = Plasma stability of payloads and linker-payloads, human plasma; assay type: in vitro ADME; conditions: pooled plasma, pH 7.4, tested time B (2 hrs per footnote), 2 μM, 37° C., read-out: Human plasma stability assay T½ (converted)
Summary of the method: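 Pooled plasma, pH adjusted to 7.4±0.1 where needed, spiked to 2 μM compound (duplicate) and incubated at 37 °C. At each time point, protein was precipitated with ACN/MeOH stop solution containing internal standards; remaining compound quantified in supernatant by LC-MS/MS.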

[7] = Plasma stability of payloads and linker-payloads, mouse plasma; assay type: in vitro ADME; conditions: for half-life at 2 µM: mouse, pooled plasma
Experimental: The plasma stability of payloads and linker payloads of the disclosure were measured. For the assay, pooled frozen plasma (human, mouse or monkey) was thawed in cold water or a 37° C. water bath prior to experiment. Plasma was centrifuged at 4000 rpm for 5 min if any clots were observed, they were subsequently removed. If required, the pH was adjusted to 7.4±0.1. For the preparation of compounds and positive controls, a 1 mM intermediate solution was prepared by diluting 10 μL of their stock solution with 90 μL DMSO; a 1 mM intermediate solution of the positive control (Propantheline) was prepared by diluting 10 μL of its stock solution with 90 μL ultrapure water. Subsequently, 100 μM dosing solution for each compound was prepared by diluting 20 μL of the intermediate solution (1 mM) with 180 μL 45% MeOH/H2O. 98 μL of plasma was spiked with 2 μL of dosing solution (100 μM) to achieve the final concentration of 2 μM in duplicate. Samples were then incubated at 37° C. in a water bath. […] At each time point, 400 μL of stop solution (200 ng/mL tolbutamide plus 200 ng/mL labetalol in 50% ACN/MeOH) was added to precipitate protein and mixed thoroughly. Sample plates were then centrifuged at 4,000 rpm for 10 min. An aliquot of supernatant (50 μL) was transferred from each well and mixed with 100 μL ultrapure water. The samples were then shaken at 800 rpm for approximately 10 min before submitting for LC-MS/MS analysis.

human GLP1R [8] = biological target: T1, human GLP1R; test: Human GLP1R cAMP accumulation assay; assay type: cell-based; parameters: HEK293 cells over-expressing full length human GLP-1R were utilized; expressed in transfected cells; host or cells: HEK293 (HEK293/hGLP1R)
Summary of the method: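 cAMP accumulation measured after 30 min at 23° C, with 500 μM IBMX in HEPES-buffered HBSS plus 0.1% BSA, in HEK293 cells expressing full-length hGLP-1R. Levels read by D2-cAMP/antibody immunoassay via standard curve, scaled between low and high controls. EC50 fitted four-parameter over a 10-point curve.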

[9] = Liver microsome stability; assay type: in vitro ADME, human; conditions: human, microsomes, Table 7
Experimental: To assess the in vitro ADME properties of the LP, microsomal stability assay was performed to determine intrinsic clearance, and plasma protein binding assay was performed to understand the distribution potential.

[10] = relative to M2361 of the same experiment

CCc1cc(OCCCCNC(=O)CCOCCOCCOCCOCCOCCOCCOCCOCCOCCOCCOCCOCCOCCOCCOCCOCCOCCOCCOCCOCCOCCOCCOCCOCCNC(=O)CCC(=O)N2Cc3ccccc3C#Cc3ccccc32)ccc1-c1ccc(C[C@H](NC(=O)[C@H](CC(=O)O)NC(=O)[C@H](CO)NC(=O)[C@@H](NC(=O)[C@](C)(Cc2ccccc2F)NC(=O)[C@@H](NC(=O)CNC(=O)[C@H](Cc2nn[nH]n2)NC(=O)C(C)(C)C(=O)NCCc2cnc[nH]2)[C@@H](C)O)[C@@H](C)O)C(=O)N[C@@H](CCCc2cc(C)cc(C)c2)C(N)=O)cc1 [LP4, DIBAC-suc-PEG24-P9] ({Malonyl(2,2-Me2,histaminyl)}-[Ala(1H-tetrazol-5-yl)]GT[αMePhe(2-F)]TSD[Bip(2'-Et-4'-O(CH2)4NH2)]([PEG24-Suc-DBCO])[Nva(5-(3,5-Me2Ph))]-NH2)
EC50 (HEK293/CRE-Luc cells [1]): > 200000 pM | HEK293/CRE-LUC S/N (HEK293/CRE-Luc cells [1]): 1.7 | S/N (HEK293/CRE-Luc cells [2]): 1.7 | EC50 (HEK293/CRE-Luc cells [2]; read-out: EC50): > 200000 pM | EC50 (human GLP1R [3]): 71.5 pM | EC50 (human GLP1R [4]): 127 pM | HEK293/CRE-LUC/hGLP1R Relative Potency (% P8 EC50) (human GLP1R [4]): 4.2% | HEK293/CRE-LUC/hGLP1R S/N (human GLP1R [4]): 63.8 | S/N (human GLP1R [5]; highest RLU / RLU of untreated wells): 63.8 | Relative Potency (% M2361 EC50) (human GLP1R [5]; [10]): 4.2% | Relative Signal:Noise (% M2361) (human GLP1R [5]; [10]): 97.1%

CCc1cc(OC)ccc1-c1ccc(C[C@H](NC(=O)[C@H](CC(=O)O)NC(=O)[C@H](CO)NC(=O)[C@@H](NC(=O)[C@](C)(Cc2ccccc2F)NC(=O)[C@@H](NC(=O)CNC(=O)[C@H](Cc2nn[nH]n2)NC(=O)C(C)(C)C(=O)NCCc2cnc[nH]2)[C@@H](C)O)[C@@H](C)O)C(=O)N[C@@H](CCCc2ccc(OCCCCNC(=O)CCOCCOCCOCCOCCOCCOCCOCCOCCOCCOCCOCCOCCOCCOCCOCCOCCOCCOCCOCCOCCOCCOCCOCCOCCNC(=O)CCC(=O)N3Cc4ccccc4-c4c(nnn4CC4OC5OC6C(CO)OC(OC7C(CO)OC(OC8C(CO)OC(OC9C(CO)OC(OC%10C(CO)OC(OC4C(O)C5O)C(O)C%10O)C(O)C9O)C(O)C8O)C(O)C7O)C(O)C6O)-c4ccccc43)cc2)C(N)=O)cc1 (stereo partly drawn) [LP23, cyclo-dex-trin-triazole-DIBAC-suc-PEG24-P24]
half-life at 2 µM [6]: > 4.8 h | plasma stability T½ ([7]; Mouse, assay time 2 hr, Table 5B): >4 h | half-life at 2 µM ([7]; pH 7.4, Mouse, assay time 2 hr, Table 5B, read-out: plasma stability T½): > 4 h | half-life at 2 µM ([7]; pH 7.4, Table 5A, mouse plasma, tested time B (2 hrs), read-out: plasma stability T½ (hr), mouse): > 4.8 h | EC50 (human GLP1R [8]): 534 pM

C[C@]12CC[C@H]3[C@@H](CCC4=CC(=O)CC[C@@]43C)[C@@H]1CC[C@@H]2O [Testosterone]
CLint scaled ([9]; read-out: CLint(liver)): 77.2 mL/min/kg | microsomal CLint ([9]; read-out: CLint(mic)): 85.7 µL/min/mg

From patent publication US20230330254A1 (Regeneron Pharmaceuticals, Inc., priority 2022, published 2023)
